In US11723877B2, “Microencapsulation process and product” (SPI PHARMA, INC., priority 2010, dated 2023):
Each block holds one compound with its values, some of them ahead of it.

Tests used:
[1] = Dissolution of orally dispersible ibuprofen powder, USP apparatus IV flow through cell, phosphate buffer pH 7.2; type: physicochemical; details: phosphate buffer pH 7.2, 37° C., 16 mL/min, 900 mL, ODP 200 mg, average of two
Method: A USP apparatus IV flow through cell was used to measure the dissolution of three orally dispersible powder blends of Ibuprofen. Powder blends were made up of: Example 6 (SPI Pharma); uncoated Ibuprofen 50 (BASF, Florham Park, N.J.); and Dasan Medichem (Soul, Korea) taste-masked Ibuprofen. Each sample was weighed and mixed by the process of spatulation until mixed. This mixture was passed through #30 mesh ASTM and packed in stick packs.
(§1) An amount of sample equivalent to contain 200 mg of Ibuprofen was weighed out and placed in the bead mixture of the flow through cell. At a rate of 16 ml/min, a 37° C. pH 7.2 phosphate buffer was pumped through cell and the effluent from the cell was collected in a reservoir vessel and samples removed for subsequent analysis in HPLC for Ibuprofen content at the time point specified. The data is an average of two determinations.

[2] = Acetaminophen dissolution, USP method (900 mL water, 50 rpm, Apparatus 2); type: physicochemical; details: first of five data columns, no own time in head (taken as 0 min)
Method: Acetaminophen dissolution was compared between microcapsules prepared from Run #2 and Run #4, an uncoated acetaminophen standard and a commercial acetaminophen coated with ethylcellulose by USP dissolution method for Acetaminophen (900 mL water, 50 rpm, Apparatus 2).

[3] = Dissolution of orally dispersible acetaminophen powder, USP apparatus IV flow through cell, phosphate buffer pH 5.8; type: physicochemical; details: phosphate buffer pH 5.8, 37° C., 16 mL/min, 900 mL, ODP 160 mg, average of two
Excerpt: A USP apparatus IV flow through cell was used to measure the dissolution of three orally dispersible powder blends of acetaminophen. Powder blends were made up of: Example 7 (SPI Pharma); uncoated Acetaminophen (Covidien, St. Louis, Mo.)) special granular; and Eurand (Dayton, Ohio) taste-masked Acetaminophen. Each sample was weighed and mixed by the process of spatulation until mixed. This mixture was passed through #30 mesh ASTM and packed in stick packs.
as §1, with “160” for “200”, “Acetaminophen” for “Ibuprofen”, “5.8” for “7.2”

physchem = details: aqueous buffer

- Ibuprofen dissolution % ([1]; 5 min): 70%
- Ibuprofen dissolution % ([1]; 10 min): 88%
- Ibuprofen dissolution % ([1]; 20 min): 91%
- Ibuprofen dissolution % ([1]; 30 min): 94%
- Ibuprofen dissolution % ([1]; 45 min): 94%
- Ibuprofen dissolution % ([1]; 60 min): 94%
SMILES: CC(C)Cc1ccc(C(C)C(=O)O)cc1 (centres unmarked) [Plain API, Ibuprofen]

SMILES: CC(=O)Nc1ccc(O)cc1 [Uncoated Acetaminophen STD, Acetaminophen]
- Percent (%) Drug Released [2]: 0%

SMILES: CC(=O)Nc1ccc(O)cc1 [Uncoated Acetaminophen, Acetaminophen]
- Acetaminophen dissolution % ([3]; 5 min): 95%
- Acetaminophen dissolution % ([3]; 10 min): 96%
- Acetaminophen dissolution % ([3]; 15 min): 96%
- Acetaminophen dissolution % ([3]; 30 min): 96%
- Acetaminophen dissolution % ([3]; 45 min): 96%
- Acetaminophen dissolution % ([3]; 60 min): 96%

- solubility (physchem): < 1000 µM
SMILES: CC(C)Cc1ccc(C(C)C(=O)O)cc1 (centres unmarked) [uncoated ibuprofen, ibuprofen]
